Structures are written as SMILES. Numbers after ± are expanded uncertainties.

The conditions of series [1]: Liquid; for Normal boiling temperature: Ebulliometric method (Recirculating still).
Series [2] in a line: excess molar enthalpy (molar enthalpy of mixing); xn = mol fraction of the nth substance listed. As to conditions: 303.15 K, 101 kPa, Liquid, Calvet calorimetry.

For `CCO` [ethanol], in series [1], the Normal boiling temperature is 78.2 ± 0.1 °C.

Turning to `c1ccncc1` [pyridine], the mass density in series [1] (298.15 K, 101.33 kPa, Pycnometric method) was 980.8 ± 1 kg/m3. The Normal boiling temperature in series [1] came to 116 ± 0.1 °C.

For the compound `c1ccncc1` [pyridine] + CCO, the excess molar enthalpy in series [2] (x2 = 0.032) was -0.000359 ± 0.000191 kcal/mol; in series [2] (x2 = 0.082), -0.00153 ± 0.000191 kcal/mol; in series [2] (x2 = 0.127), -0.00308 ± 0.000239 kcal/mol; in series [2] (x2 = 0.192), -0.00545 ± 0.000311 kcal/mol; in series [2] (x2 = 0.251) it was -0.00827 ± 0.000406 kcal/mol; in series [2] (x2 = 0.351), -0.0122 ± 0.00055 kcal/mol. The excess molar enthalpy in series [2] (x2 = 0.447) is -0.0172 ± 0.000741 kcal/mol; in series [2] (x2 = 0.502), -0.0185 ± 0.000789 kcal/mol; in series [2] (x2 = 0.572), -0.0189 ± 0.000813 kcal/mol; in series [2] (x2 = 0.653), -0.0152 ± 0.000669 kcal/mol; in series [2] (x2 = 0.734), -0.0126 ± 0.000574 kcal/mol; in series [2] (x2 = 0.874), -0.00598 ± 0.000311 kcal/mol.

The record behind these values is the NIST ThermoML archive (doi:10.1021/je1002048).
